{
  "source": "paper PMC6896740",
  "about": "“Safety, tolerability, pharmacokinetics, and pharmacodynamics of PF-06650833, a selective interleukin-1 receptor-associated kinase 4 (IRAK4) inhibitor, in single and multiple ascending dose randomized phase 1 studies in healthy subjects” (Arthritis Research & Therapy, 2019)",
  "key": {"[1]": {"tested_on": "healthy adult subjects", "experiment": "Study 2 (MAD) safety and tolerability: TEAEs, urine crystals", "type": "in vivo", "protocol": "Study 2 (B7921002; NCT02485769) was a 14-day, phase 1, randomized, double-blind, sponsor-open, placebo-controlled, sequential group, MAD study in healthy adult subjects (Fig. 1b).\nSubjects were enrolled sequentially into seven cohorts. Within each cohort, eight subjects and two subjects were randomized to receive PF-06650833 and placebo, respectively. Doses for all cohorts were administered after a standard (not high-fat) meal. Multiple dosing regimens (once daily [QD] 24 h apart, twice daily [BID] 12 h apart, three times per day [TID] 8 h apart, and four times per day [QID] 6 h apart) were used to provide required total daily doses. In the final dosing scheme, multiple oral doses of PF-06650833 IR suspension formulations at 25, 100, 250, and 750 mg BID and 1000 mg QID were administered in cohorts 1–5. PF-06650833 IR 330 mg TID (cohort 6) and an MR tablet at a dose of 300 mg QD (cohort 7) were also evaluated (see Fig. 1b for final dosing scheme).\nDose escalation (cohorts 1–5) or dose selection (cohorts 6–8) was based upon the evaluation of ≥ 7 days of safety and tolerability for all subjects and ≥ 12 h of PK data for at least six subjects receiving PF-06650833. To establish an MTD, dose escalation was to cease when the limit of tolerability was achieved.\nSafety assessments included incidence and severity of treatment-emergent AEs (TEAEs) and discontinuation due to TEAEs, incidence of treatment-emergent clinical laboratory abnormalities, and proportion of subjects meeting with pre-defined criteria for potential clinical concern in vital signs and electrocardiogram (ECG) parameters.\nThe safety analysis set was defined as all subjects who received at least one dose of study treatment, and data were summarized descriptively. The PK concentration analysis set was defined as all enrolled, treated subjects who had at least one concentration in at least one treatment period. The PK parameter analysis set was defined as all enrolled, treated subjects who had at least one of the PK parameters of interest in at least one treatment period. The PD analysis set was defined as all enrolled subjects who received at least one dose of PF-06650833 and had at least one PD parameter. PK/PD data were summarized descriptively.\nPK parameters were calculated using non-compartmental analysis of concentration-time data. For study 1 only, data from cohort 1 (period 4 [IR 30 mg] versus period 5 [IR 30 mg + food]) and cohort 3 (period 2 [MR 30 mg] versus period 3 [MR 30 mg + food]) were used to estimate the effect of food intake. Cmax and AUC were calculated for each subject and treatment, with and without food, after which a within-subject difference could be found between fed (high-fat meal) and fasted doses. Analysis of covariance was used to model these within-subject differences and to calculate 95% confidence intervals (CIs) for the differences for each dose (IR 30 mg and MR 30 mg). For study 2 only, the amounts of PF-06650833 in urine and renal clearance were listed and summarized descriptively. As part of the routine safety laboratory monitoring, the presence of any atypical crystals in urine specimens was semi-quantitatively assessed microscopically by typical histopathologic methods and scored as numbers of crystals per high power field (hpf); higher abundance (moderate or many) was defined as ≥ 15/hpf. No formal interim analyses were conducted."}, "[2]": {"tested_on": "high-sensitivity C-reactive protein (hsCRP)", "experiment": "Study 2 (MAD) serum hsCRP pharmacodynamics", "type": "in vivo, human", "source_text": "The primary objective of study 2 was to determine the safety and tolerability of MAD of orally administered IR and MR formulations of PF-06650833 after a standard meal in healthy adult subjects. The secondary objective was to evaluate the plasma and urine PK profiles of PF-06650833 after repeat dosing. Exploratory objectives were to assess the effects of PF-06650833 on exploratory biomarkers of PD activity, including high-sensitivity C-reactive protein (hsCRP), and to evaluate cholesterol/hydroxycholesterol ratios as an endogenous marker for cytochrome P450 3A (CYP3A) induction or inhibition.\nFor both studies, samples of blood (and urine in study 2) were taken for evaluation of PK/PD parameters (see Additional file 1: Supplemental Methods). PK samples were obtained at the nominal time relative to dosing (± 10%). Plasma and urine samples were analyzed using validated, sensitive, and specific liquid chromatography tandem mass spectrometric methods (at Pfizer Inc., Groton, CT, USA, for study 1 and at Worldwide Pharmacokinetics, Dynamics and Metabolism, Cambridge, MA, USA, for study 2). The lower limit of quantification for PF-06650833 in plasma was 0.0500 ng/mL. The lower limit of quantification for PF-06650833 in urine was 1.00 ng/mL. Serum samples were also analyzed for hsCRP, and plasma samples were analyzed for 4β-hydroxycholesterol and cholesterol.\nThe safety analysis set was defined as all subjects who received at least one dose of study treatment, and data were summarized descriptively. The PK concentration analysis set was defined as all enrolled, treated subjects who had at least one concentration in at least one treatment period. […]\n35 Plasma samples were analyzed using a validated, sensitive , and specific liquid […]\n38 MA, USA for Study 2). The lower limit of quantification (LLOQ) for PF-06650833 in plasma\n39 was 0.0500 ng/mL. Between-day assay accuracy values were also calculated (not shown). […]\n44 cohorts. Urine samples were also analyzed using a validated, sensitive , and specific LC-MS […]"}, "[3]": {"parameters": "method as in PMID 28498658", "conditions": "cited from earlier work"}, "[4]": {"conditions": "IR 100 mg BID, 14 days, fed, 8 evaluable"}},
  "data": [
    {"smiles": "CC[C@@H]1[C@H](F)C(=O)N[C@@H]1COc1nccc2cc(C(N)=O)c(OC)cc12", "note": "[PF-06650833, 1-{[(2S,3S,4S)-3-Ethyl-4-fluoro-5-oxopyrrolidin-2-yl]methoxy}-7-methoxyisoquinoline-6-carboxamide]", "values": [
      {"measurement": "Infections and infestations: subjects with AE, all causalities (treatment-related)", "setting": "[1]; [4]", "result": "1 (0)"},
      {"measurement": "Upper respiratory tract infection: subjects with AE, all causalities (treatment-related)", "setting": "[1]; [4]", "result": "1 (0)"},
      {"measurement": "Nasal congestion: subjects with AE, all causalities (treatment-related)", "setting": "[1]; IR 330 mg TID, 14 days, fed, 8 evaluable", "result": "1 (1)"},
      {"measurement": "Infections and infestations: subjects with AE, all causalities (treatment-related)", "setting": "[1]; IR 750 mg BID, 14 days, fed, 8 evaluable", "result": "1 (1)"},
      {"measurement": "Infections and infestations: subjects with AE, all causalities (treatment-related)", "setting": "[1]; MR 300 mg QD, 14 days, fed, 8 evaluable", "result": "1 (0)"},
      {"measurement": "Serious AEs or deaths", "setting": "[1]; all dose groups", "result": "No serious AEs or deaths"},
      {"measurement": "Severity of TEAEs", "setting": "[1]; in vivo", "result": "mild or moderate"},
      {"measurement": "Maximum tolerated dose", "setting": "[1]; multiple doses up to IR 1000 mg QID, MR 300 mg QD", "result": "not established"},
      {"measurement": "Day by which maximal hsCRP reduction was reached", "setting": "[2]; IR ≥ 250 mg BID and MR 300 mg QD", "result": "≤ 7", "unit": "days"},
      {"measurement": "Change from baseline in serum hsCRP", "setting": "[2]; IR ≥ 250 mg BID and MR 300 mg QD, multiple dosing", "result": "sustained decrease"},
      {"measurement": "Reduction from baseline in hsCRP (geometric mean percentage)", "setting": "[2]; day 14, highest dose groups", "result": "60–70%"},
      {"measurement": "Permeability", "setting": "[3]", "result": "high-permeability compound"}
    ]}
  ]
}
